Laboratory results as given in ChEMBL document CHEMBL5724914, “Linking interpersonal differences in gut microbiota composition and drug biotransformation activity” (2024).
One block for each molecule: values may come before it.

What was measured:
[1] = The drug is tested on WLS-006 corresponding to human gut metagenome with ENA study accession number: PRJEB37062 and ENA sample accession number: ERS12561741 for biotransformation under anaerobic condition. The drug concentrations were measured over 9 timepoints collected between 0 and 24 hours of incubation by liquid-chromatography-coupled mass spectrometry (LC–MS); settings: 2 µM
[2] = The drug is tested on WLS-007 corresponding to human gut metagenome with ENA study accession number: PRJEB37062 and ENA sample accession number: ERS12561742 for biotransformation under anaerobic condition. The drug concentrations were measured over 9 timepoints collected between 0 and 24 hours of incubation by liquid-chromatography-coupled mass spectrometry (LC–MS); settings: 2 µM
[3] = human gut metagenome, 24 h, 2 µM
[4] = The drug is tested on WLS-010 corresponding to human gut metagenome with ENA study accession number: PRJEB37062 and ENA sample accession number: ERS12561743 for biotransformation under anaerobic condition. The drug concentrations were measured over 9 timepoints collected between 0 and 24 hours of incubation by liquid-chromatography-coupled mass spectrometry (LC–MS); settings: 2 µM
[5] = The drug is tested on WLS-370 corresponding to human gut metagenome with ENA study accession number: PRJEB37062 and ENA sample accession number: ERS12561793 for biotransformation under anaerobic condition. The drug concentrations were measured over 9 timepoints collected between 0 and 24 hours of incubation by liquid-chromatography-coupled mass spectrometry (LC–MS); settings: 2 µM
[6] = The drug is tested on Z-013 corresponding to rabbit gut metagenome with ENA study accession number: PRJEB37062 and ENA sample accession number: ERS12561813 for biotransformation under anaerobic condition. The drug concentrations were measured over 9 timepoints collected between 0 and 24 hours of incubation by liquid-chromatography-coupled mass spectrometry (LC–MS); settings: 2 µM
[7] = human gut metagenome, 24 h, 2 µM; remark: listed apart in the source
[8] = The drug is tested on WLS-052 corresponding to human gut metagenome with ENA study accession number: PRJEB37062 and ENA sample accession number: ERS12561747 for biotransformation under anaerobic condition. The drug concentrations were measured over 9 timepoints collected between 0 and 24 hours of incubation by liquid-chromatography-coupled mass spectrometry (LC–MS); settings: 2 µM
[9] = The drug is tested on Z-006 corresponding to mouse gut metagenome with ENA study accession number: PRJEB37062 and ENA sample accession number: ERS12561806 for biotransformation under anaerobic condition. The drug concentrations were measured over 9 timepoints collected between 0 and 24 hours of incubation by liquid-chromatography-coupled mass spectrometry (LC–MS); settings: 2 µM
[10] = human gut metagenome, 24 h, 2 µM; remark: listed apart in the source
[11] = human gut metagenome, 24 h, 2 µM; remark: listed apart in the source
[12] = human gut metagenome, 24 h, 2 µM; remark: listed apart in the source
[13] = The drug is tested on WLS-039 corresponding to human gut metagenome with ENA study accession number: PRJEB37062 and ENA sample accession number: ERS12561746 for biotransformation under anaerobic condition. The drug concentrations were measured over 9 timepoints collected between 0 and 24 hours of incubation by liquid-chromatography-coupled mass spectrometry (LC–MS); settings: 2 µM
[14] = human gut metagenome, 24 h, 2 µM; remark: listed apart in the source
[15] = The drug is tested on WLS-350 corresponding to human gut metagenome with ENA study accession number: PRJEB37062 and ENA sample accession number: ERS12561789 for biotransformation under anaerobic condition. The drug concentrations were measured over 9 timepoints collected between 0 and 24 hours of incubation by liquid-chromatography-coupled mass spectrometry (LC–MS); settings: 2 µM
[16] = human gut metagenome, 24 h, 2 µM; remark: listed apart in the source
[17] = human gut metagenome, 24 h, 2 µM; remark: listed apart in the source
[18] = human gut metagenome, 24 h, 2 µM; remark: listed apart in the source
[19] = The drug is tested on Z-011 corresponding to mouse gut metagenome with ENA study accession number: PRJEB37062 and ENA sample accession number: ERS12561811 for biotransformation under anaerobic condition. The drug concentrations were measured over 9 timepoints collected between 0 and 24 hours of incubation by liquid-chromatography-coupled mass spectrometry (LC–MS); settings: 2 µM
[20] = The drug is tested on WLS-082 corresponding to human gut metagenome with ENA study accession number: PRJEB37062 and ENA sample accession number: ERS12561751 for biotransformation under anaerobic condition. The drug concentrations were measured over 9 timepoints collected between 0 and 24 hours of incubation by liquid-chromatography-coupled mass spectrometry (LC–MS); settings: 2 µM
Note: call rule not given here.

Compound: O=C(CCCN1CCC2(CC1)C(=O)NCN2c1ccccc1)c1ccc(F)cc1 [SPIPERONE]
Bacterial Biotransformation [1]: Compound metabolized | Bacterial Biotransformation [2]: Compound NOT metabolized | Bacterial Biotransformation [3]: Compound NOT metabolized | Bacterial Biotransformation [4]: Compound NOT metabolized | Bacterial Biotransformation [5]: Compound NOT metabolized | Bacterial Biotransformation [6]: Compound NOT metabolized | Bacterial Biotransformation [7]: Compound NOT metabolized | Bacterial Biotransformation [8]: Compound NOT metabolized | Bacterial Biotransformation [9]: Compound NOT metabolized | Bacterial Biotransformation [10]: Compound NOT metabolized | Bacterial Biotransformation [11]: Compound metabolized | Bacterial Biotransformation [12]: Compound NOT metabolized | Bacterial Biotransformation [13]: Compound NOT metabolized | Bacterial Biotransformation [14]: Compound NOT metabolized | Bacterial Biotransformation [15]: Compound NOT metabolized | Bacterial Biotransformation [16]: Compound NOT metabolized | Bacterial Biotransformation [17]: Compound NOT metabolized | Bacterial Biotransformation [18]: Compound NOT metabolized | Bacterial Biotransformation [19]: Compound NOT metabolized | Bacterial Biotransformation [20]: Compound NOT metabolized

Compound: CN(C)CCOC(C)(c1ccccc1)c1ccccn1.O=C(O)CCC(=O)O (stereo not given) [DOXYLAMINE SUCCINATE]
Bacterial Biotransformation [1]: Compound NOT metabolized | Bacterial Biotransformation [2]: Compound NOT metabolized | Bacterial Biotransformation [3]: Compound NOT metabolized | Bacterial Biotransformation [4]: Compound NOT metabolized | Bacterial Biotransformation [5]: Compound NOT metabolized | Bacterial Biotransformation [6]: Compound NOT metabolized | Bacterial Biotransformation [7]: Compound NOT metabolized | Bacterial Biotransformation [8]: Compound NOT metabolized | Bacterial Biotransformation [9]: Compound NOT metabolized | Bacterial Biotransformation [10]: Compound NOT metabolized | Bacterial Biotransformation [11]: Compound NOT metabolized | Bacterial Biotransformation [12]: Compound NOT metabolized | Bacterial Biotransformation [13]: Compound NOT metabolized | Bacterial Biotransformation [14]: Compound NOT metabolized | Bacterial Biotransformation [15]: Compound NOT metabolized | Bacterial Biotransformation [16]: Compound NOT metabolized | Bacterial Biotransformation [17]: Compound NOT metabolized | Bacterial Biotransformation [18]: Compound NOT metabolized | Bacterial Biotransformation [19]: Compound NOT metabolized | Bacterial Biotransformation [20]: Compound NOT metabolized

Compound: COc1cc(C(=O)NCc2ccc(OCCN(C)C)cc2)cc(OC)c1OC [TRIMETHOBENZAMIDE]
Bacterial Biotransformation [1]: Compound NOT metabolized | Bacterial Biotransformation [2]: Compound NOT metabolized | Bacterial Biotransformation [3]: Compound NOT metabolized | Bacterial Biotransformation [4]: Compound NOT metabolized | Bacterial Biotransformation [5]: Compound NOT metabolized | Bacterial Biotransformation [6]: Compound NOT metabolized | Bacterial Biotransformation [7]: Compound NOT metabolized | Bacterial Biotransformation [8]: Compound NOT metabolized | Bacterial Biotransformation [9]: Compound NOT metabolized | Bacterial Biotransformation [10]: Compound NOT metabolized | Bacterial Biotransformation [11]: Compound NOT metabolized | Bacterial Biotransformation [12]: Compound NOT metabolized | Bacterial Biotransformation [13]: Compound NOT metabolized | Bacterial Biotransformation [14]: Compound NOT metabolized | Bacterial Biotransformation [15]: Compound NOT metabolized | Bacterial Biotransformation [16]: Compound NOT metabolized | Bacterial Biotransformation [17]: Compound NOT metabolized | Bacterial Biotransformation [18]: Compound NOT metabolized | Bacterial Biotransformation [19]: Compound NOT metabolized | Bacterial Biotransformation [20]: Compound NOT metabolized

The remaining lines, values ahead:

Bacterial Biotransformation [1]: Compound metabolized | Bacterial Biotransformation [2]: Compound NOT metabolized | Bacterial Biotransformation [3]: Compound NOT metabolized | Bacterial Biotransformation [4]: Compound NOT metabolized | Bacterial Biotransformation [5]: Compound NOT metabolized | Bacterial Biotransformation [6]: Compound NOT metabolized | Bacterial Biotransformation [7]: Compound NOT metabolized | Bacterial Biotransformation [8]: Compound NOT metabolized | Bacterial Biotransformation [9]: Compound NOT metabolized | Bacterial Biotransformation [10]: Compound NOT metabolized | Bacterial Biotransformation [11]: Compound NOT metabolized | Bacterial Biotransformation [12]: Compound NOT metabolized | Bacterial Biotransformation [13]: Compound NOT metabolized | Bacterial Biotransformation [14]: Compound metabolized | Bacterial Biotransformation [15]: Compound NOT metabolized | Bacterial Biotransformation [16]: Compound metabolized | Bacterial Biotransformation [17]: Compound NOT metabolized | Bacterial Biotransformation [18]: Compound NOT metabolized | Bacterial Biotransformation [19]: Compound NOT metabolized | Bacterial Biotransformation [20]: Compound NOT metabolized
Compound: C=C[C@H]1CN2CC[C@H]1C[C@H]2[C@H](O)c1ccnc2ccc(OC)cc12.C=C[C@H]1CN2CC[C@H]1C[C@H]2[C@H](O)c1ccnc2ccc(OC)cc12.O.O.O=S(=O)(O)O [QUININE SULFATE]

Bacterial Biotransformation [1]: Compound metabolized | Bacterial Biotransformation [2]: Compound metabolized | Bacterial Biotransformation [3]: Compound metabolized | Bacterial Biotransformation [4]: Compound metabolized | Bacterial Biotransformation [5]: Compound metabolized | Bacterial Biotransformation [6]: Compound metabolized | Bacterial Biotransformation [7]: Compound metabolized | Bacterial Biotransformation [8]: Compound metabolized | Bacterial Biotransformation [9]: Compound metabolized | Bacterial Biotransformation [10]: Compound metabolized | Bacterial Biotransformation [11]: Compound metabolized | Bacterial Biotransformation [12]: Compound metabolized | Bacterial Biotransformation [13]: Compound metabolized | Bacterial Biotransformation [14]: Compound metabolized | Bacterial Biotransformation [15]: Compound metabolized | Bacterial Biotransformation [16]: Compound metabolized | Bacterial Biotransformation [17]: Compound metabolized | Bacterial Biotransformation [18]: Compound metabolized | Bacterial Biotransformation [19]: Compound metabolized | Bacterial Biotransformation [20]: Compound metabolized
Compound: CC(=O)O[C@]1(C(C)=O)CC[C@H]2[C@@H]3C=C(C)C4=CC(=O)CC[C@]4(C)[C@H]3CC[C@@]21C [MEGESTROL ACETATE]
